The results in this text go back to US11759455B2, “Substituted 1H-imidazo[4,5-b]pyridin-2(3H)-ones and their use as GLUN2B receptor modulators” (JANSSEN PHARMACEUTICA NV, priority 2016, dated 2023).

Each structure is given as a SMILES string. Where two headings read alike, the source gives them in different places.

The test concerns the target T1, human GluN1/GluN2B NMDA receptors (Homo sapiens, UniProt Q13224).
T1 construct: expressed in transfected cells
As to the kind of experiment: Cell-based calcium flux (FLIPR) assay on cloned human NR1/NR2B ion channels expressed in mammalian cells (standard and HTS buffer variants).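 Also: stable Tet-On inducible cell line, Ca2+ influx triggered by glutamate at about EC40 plus 10 µM glycine, fluorescent dye read-out over 5 min, normalized to control wells.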 In general terms: Calcium assays in cells follow changes in intracellular calcium, usually with a dye or a luminescent sensor.

Setting [1] is: standard assay buffer (0.5 mM MgCl2 in dye loading buffer; 137 mM NaCl, 4 mM KCl in assay buffer), human GluN1/GluN2B, read-out: NR2B IC50 (μM) standard assay.
[2] abbreviates: standard assay buffer (0.5 mM MgCl2 dye loading; 137 mM NaCl, 4 mM KCl assay buffer), human GluN1/GluN2B cells, read-out: NR2B IC50 (μM) standard assay.
[3] abbreviates: HTS assay buffer (1.5 mM MgCl2 in dye loading buffer; 150 mM NaCl, 3 mM KCl in assay buffer), human GluN1/GluN2B, read-out: NR2B IC50 (μM) HTS assay.

Usually IC50 stands for the concentration that inhibits the measured activity by half.

T1 sequence (Q13224 27-1484, other chains not shown): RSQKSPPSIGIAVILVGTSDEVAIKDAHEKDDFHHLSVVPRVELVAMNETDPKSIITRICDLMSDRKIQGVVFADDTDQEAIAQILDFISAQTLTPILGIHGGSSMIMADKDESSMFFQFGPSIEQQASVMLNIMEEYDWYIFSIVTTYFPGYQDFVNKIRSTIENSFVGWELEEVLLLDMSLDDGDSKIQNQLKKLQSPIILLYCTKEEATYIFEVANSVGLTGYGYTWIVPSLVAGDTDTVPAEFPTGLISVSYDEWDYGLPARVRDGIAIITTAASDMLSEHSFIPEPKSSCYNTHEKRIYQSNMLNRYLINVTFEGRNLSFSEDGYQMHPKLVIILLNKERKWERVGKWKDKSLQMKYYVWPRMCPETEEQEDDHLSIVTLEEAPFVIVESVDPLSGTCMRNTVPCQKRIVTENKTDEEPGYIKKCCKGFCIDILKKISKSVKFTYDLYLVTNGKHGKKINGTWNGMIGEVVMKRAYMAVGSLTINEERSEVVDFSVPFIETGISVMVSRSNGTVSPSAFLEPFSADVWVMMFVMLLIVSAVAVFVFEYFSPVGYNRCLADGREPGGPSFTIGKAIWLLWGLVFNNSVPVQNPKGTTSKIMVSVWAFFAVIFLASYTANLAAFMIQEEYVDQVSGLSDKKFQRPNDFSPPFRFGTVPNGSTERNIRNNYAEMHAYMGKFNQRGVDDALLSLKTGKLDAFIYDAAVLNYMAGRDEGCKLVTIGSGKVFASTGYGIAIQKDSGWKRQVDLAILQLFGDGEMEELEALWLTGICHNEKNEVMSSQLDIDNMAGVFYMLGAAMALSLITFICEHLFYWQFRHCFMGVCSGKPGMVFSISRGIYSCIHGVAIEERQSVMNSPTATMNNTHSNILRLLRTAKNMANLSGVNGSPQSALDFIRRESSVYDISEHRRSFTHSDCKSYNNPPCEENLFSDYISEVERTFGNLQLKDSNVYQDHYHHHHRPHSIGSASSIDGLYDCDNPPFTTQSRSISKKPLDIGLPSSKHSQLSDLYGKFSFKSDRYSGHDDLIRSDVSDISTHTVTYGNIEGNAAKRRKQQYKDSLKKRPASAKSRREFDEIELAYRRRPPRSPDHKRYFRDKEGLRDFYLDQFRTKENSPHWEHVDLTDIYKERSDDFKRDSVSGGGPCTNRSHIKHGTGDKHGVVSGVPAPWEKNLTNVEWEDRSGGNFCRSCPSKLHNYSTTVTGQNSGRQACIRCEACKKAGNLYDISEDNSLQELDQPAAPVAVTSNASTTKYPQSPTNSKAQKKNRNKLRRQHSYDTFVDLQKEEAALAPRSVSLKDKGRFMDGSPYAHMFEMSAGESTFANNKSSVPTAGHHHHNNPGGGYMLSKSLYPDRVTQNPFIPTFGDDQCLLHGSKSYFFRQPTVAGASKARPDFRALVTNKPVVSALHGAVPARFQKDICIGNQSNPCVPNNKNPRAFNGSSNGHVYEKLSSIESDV

On to `Cn1c(=O)n(Cc2cccnc2)c2cc(-c3ccc(C(F)(F)F)s3)cnc21` [Example 364, 3-Methyl-1-(3-pyridylmethyl)-6-[5-(trifluoromethyl)-2-thienyl]imidazo[4,5-b]pyridin-2-one], for which, under setting [1], the IC50 was found to be 0.168 µM. For the compound `NC(=O)Cn1c(=O)[nH]c2ncc(-c3ccc(F)c(Cl)c3)cc21` [Example 434, 2-[6-(3-Chloro-4-fluoro-phenyl)-2-oxo-3H-imidazo[4,5-b]pyridin-1-yl]acetamide], under setting [1], the IC50 was found to be 0.583 µM. With `Cc1cccc(-c2cnc3c(c2)n(Cc2cncc(F)c2)c(=O)n3C)c1` [Example 350, 1-[(5-Fluoro-3-pyridyl)methyl]-3-methyl-6-(m-tolyl)imidazo[4,5-b]pyridin-2-one], under setting [1], the half-inhibitory concentration (IC50) amounted to 0.029 µM. In the case of `Cc1cccc(-c2cnc3c(c2)n(Cc2cncc(Cl)c2)c(=O)n3C)c1F` [Example 371, 1-[(5-Chloro-3-pyridyl)methyl]-6-(2-fluoro-3-methyl-phenyl)-3-methyl-imidazo[4,5-b]pyridin-2-one], the IC50 under setting [1] was determined as 0.19 µM. As to `O=c1[nH]c2ncc(-c3cccc(C(F)(F)F)c3)cc2n1CCNC1CC1` [Example 148, 1-[2-(Cyclopropylamino)ethyl]-6-[3-(trifluoromethyl)phenyl]-3H-imidazo[4,5-b]pyridin-2-one], the IC50 under setting [2] was 0.505 µM. As to `Cc1cc(-c2cnc3c(c2)n(Cc2cccnc2)c(=O)n3C)sc1Cl` [Example 365, 6-(5-Chloro-4-methyl-2-thienyl)-3-methyl-1-(3-pyridylmethyl)imidazo[4,5-b]pyridin-2-one], under setting [1], the IC50 was determined as 0.063 µM. Regarding `COc1ccc(-c2cnc3[nH]c(=O)n(Cc4ccc(C#N)cc4)c3c2)cc1` [Example 476, 4-[[6-(4-Methoxyphenyl)-2-oxo-3H-imidazo[4,5-b]pyridin-1-yl]methyl]benzonitrile], the IC50 under setting [3] was determined as 4.53 µM. As for `Cc1ncc(Cn2c(=O)[nH]c3ncc(-c4cccc(C(F)(F)F)c4)cc32)cn1` [Example 231, 1-[(2-Methylpyrimidin-5-yl)methyl]-6-[3-(trifluoromethyl)phenyl]-3H-imidazo[4,5-b]pyridin-2-one], the IC50 under setting [2] turned out to be 0.094 µM. With `CN(C)C(=O)Cn1c(=O)n(C)c2ncc(-c3csc(C(F)(F)F)c3)cc21` [Example 101, N,N-Dimethyl-2-[3-methyl-2-oxo-6-[5-(trifluoromethyl)-3-thienyl]imidazo[4,5-b]pyridin-1-yl]acetamide], the concentration for half-maximal inhibition (IC50) under setting [2] was 0.019 µM. Take `Cc1nnc(Cn2c(=O)n(C)c3ncc(-c4ccc(F)c(C)c4F)cc32)o1` [Example 575, 6-(2,4-Difluoro-3-methyl-phenyl)-3-methyl-1-[(5-methyl-1,3,4-oxadiazol-2-yl)methyl]imidazo[4,5-b]pyridin-2-one]: the IC50 under setting [1] was found to be 0.028 µM. In the case of `COC1CN(C(=O)Cn2c(=O)[nH]c3ncc(-c4cccc(C(F)(F)F)c4)cc32)C1` [Example 191, 1-[2-(3-Methoxyazetidin-1-yl)-2-oxo-ethyl]-6-[3-(trifluoromethyl)phenyl]-3H-imidazo[4,5-b]pyridin-2-one], under setting [2], the IC50 worked out at 0.132 µM.

`Cc1cccc(-c2cnc3c(c2)n(Cc2cccnn2)c(=O)n3C)c1` [Example 379, 3-Methyl-6-(m-tolyl)-1-(pyridazin-3-ylmethyl)imidazo[4,5-b]pyridin-2-one]: under setting [1], the half-maximal inhibitory concentration (IC50) amounted to 0.033 µM. As for `Cc1cc(Cn2c(=O)[nH]c3ncc(-c4ccccc4)cc32)no1` [Example 11, 1-[(5-Methylisoxazol-3-yl)methyl]-6-phenyl-3H-imidazo[4,5-b]pyridin-2-one], under setting [2], the 50% inhibitory concentration (IC50) worked out at 0.088 µM. On to `Cc1c(F)ccc(-c2cnc3c(c2)n(CC(=O)N2CCC2)c(=O)n3CF)c1F` [Example 595, 1-[2-(Azetidin-1-yl)-2-oxo-ethyl]-6-(2,4-difluoro-3-methyl-phenyl)-3-(fluoromethyl)imidazo[4,5-b]pyridin-2-one], for which the IC50 under setting [1] was 0.974 µM. With `Cn1c(=O)n(Cc2cncnc2)c2cc(-c3ccc(F)c(F)c3)cnc21` [Example 60, 6-(3,4-Difluorophenyl)-3-methyl-1-(pyrimidin-5-ylmethyl)imidazo[4,5-b]pyridin-2-one], the IC50 under setting [2] was 0.45 µM. For the compound `Cn1c(=O)n(Cc2cncc(F)c2)c2cc(-c3ccc(Cl)c(OC(F)F)c3)cnc21` [Example 544, 6-[4-Chloro-3-(difluoromethoxy)phenyl]-1-[(5-fluoro-3-pyridyl)methyl]-3-methyl-imidazo[4,5-b]pyridin-2-one], the IC50 under setting [1] was determined as 0.09 µM. Consider `O=c1[nH]c2ncc(-c3ccc(F)c(F)c3)cc2n1Cc1cccnc1` [Example 292, 6-(3,4-Difluorophenyl)-1-(3-pyridylmethyl)-3H-imidazo[4,5-b]pyridin-2-one], for which the IC50 under setting [2] was found to be 0.06 µM. Regarding `O=C(Cn1c(=O)[nH]c2ncc(-c3ccc(F)c(Cl)c3)cc21)NC1CC1` [Example 448, 2-[6-(3-Chloro-4-fluoro-phenyl)-2-oxo-3H-imidazo[4,5-b]pyridin-1-yl]-N-cyclopropyl-acetamide], under setting [1], the IC50 was 0.008 µM. Regarding `O=c1[nH]c2ncc(-c3ccnc(C(F)(F)F)c3)cc2n1CCN1CCC1` [Example 155, 1-[2-(Azetidin-1-yl)ethyl]-6-[2-(trifluoromethyl)-4-pyridyl]-3H-imidazo[4,5-b]pyridin-2-one], the IC50 under setting [2] was determined as 1.75 µM.

Turning to `CCC(=O)Cn1c(=O)n(C)c2ncc(-c3cccc(C(F)(F)F)c3)cc21` [Example 388, 3-Methyl-1-(2-oxobutyl)-6-[3-(trifluoromethyl)phenyl]imidazo[4,5-b]pyridin-2-one], the half-inhibitory concentration (IC50) under setting [1] was 0.05 µM. With `CCOc1ccccc1-c1cnc2[nH]c(=O)n(Cc3ccccc3C#N)c2c1` [Example 484, 2-[[6-(2-Ethoxyphenyl)-2-oxo-3H-imidazo[4,5-b]pyridin-1-yl]methyl]benzonitrile], under setting [1], the IC50 worked out at 1.39 µM. The same measure, in the same setting: the same measure for `Cn1c(=O)n(Cc2cncc(Cl)c2)c2cc(-c3ccc(C(F)(F)F)s3)cnc21` [Example 373, 1-[(5-Chloro-3-pyridyl)methyl]-3-methyl-6-[5-(trifluoromethyl)-2-thienyl]imidazo[4,5-b]pyridin-2-one]: 9.72 µM. `COc1ccnc(Cn2c(=O)[nH]c3ncc(-c4ccc(C(C)(C)C)cc4)cc32)c1OC` [Example 512, 6-(4-tert-Butylphenyl)-1-[(3,4-dimethoxy-2-pyridyl)methyl]-3H-imidazo[4,5-b]pyridin-2-one]: the IC50 under setting [3] is above 29 µM. Consider `Cn1c(=O)n(CC(=O)N2CCC2)c2cc(-c3cnc(C(F)(F)F)s3)cnc21` [Example 115, 1-[2-(Azetidin-1-yl)-2-oxo-ethyl]-3-methyl-6-[2-(trifluoromethyl)thiazol-5-yl]imidazo[4,5-b]pyridin-2-one], for which, under setting [2], the IC50 was 0.82 µM. Consider `O=C(Cn1c(=O)[nH]c2ncc(-c3ccc(C(F)(F)F)s3)cc21)N1CC(F)C1` [Example 578, 1-[2-(3-Fluoroazetidin-1-yl)-2-oxo-ethyl]-6-[5-(trifluoromethyl)-2-thienyl]-3H-imidazo[4,5-b]pyridin-2-one], for which, under setting [1], the IC50 was found to be 0.014 µM. Take `CCOc1ccc(F)cc1-c1cnc2[nH]c(=O)n(Cc3cc(C)on3)c2c1` [Example 521, 6-(2-Ethoxy-5-fluoro-phenyl)-1-[(5-methylisoxazol-3-yl)methyl]-3H-imidazo[4,5-b]pyridin-2-one]: under setting [1], the IC50 is 0.132 µM.

On to `CN(C)C(=O)Cn1c(=O)n(C)c2ncc(-c3ccsc3C(F)(F)F)cc21` [Example 96, N,N-Dimethyl-2-[3-methyl-2-oxo-6-[2-(trifluoromethyl)-3-thienyl]imidazo[4,5-b]pyridin-1-yl]acetamide], for which the 50% inhibitory concentration (IC50) under setting [2] came out at 0.522 µM. On to `Cc1c(F)ccc(-c2cnc3c(c2)n(CC(=O)N(C)C)c(=O)n3C)c1F` [Example 423, 2-[6-(2,4-Difluoro-3-methyl-phenyl)-3-methyl-2-oxo-imidazo[4,5-b]pyridin-1-yl]-N,N-dimethyl-acetamide], for which, under setting [1], the IC50 was 0.006 µM. Regarding `Cc1c(F)ccc(-c2cnc3c(c2)n(Cc2ccccn2)c(=O)n3C)c1F` [Example 68, 6-(2,4-Difluoro-3-methyl-phenyl)-3-methyl-1-(2-pyridylmethyl)imidazo[4,5-b]pyridin-2-one], the IC50 under setting [2] worked out at 0.31 µM. Regarding `Cc1noc(Cn2c(=O)[nH]c3ncc(-c4ccc(F)c(F)c4)cc32)n1` [Example 143, 6-(3,4-Difluorophenyl)-1-[(3-methyl-1,2,4-oxadiazol-5-yl)methyl]-3H-imidazo[4,5-b]pyridin-2-one], under setting [2], the IC50 came out at 0.075 µM. Regarding `CN(C)C(=O)Cn1c(=O)n(C)c2ncc(-c3ccc(Cl)c(OC(F)F)c3)cc21` [Example 591, 2-[6-[4-Chloro-3-(difluoromethoxy)phenyl]-3-methyl-2-oxo-imidazo[4,5-b]pyridin-1-yl]-N,N-dimethyl-acetamide], the IC50 under setting [1] worked out at 0.034 µM.

Regarding `Cc1c(F)ccc(-c2cnc3c(c2)n(Cc2cnn(C)c2)c(=O)n3C)c1F` [Example 572, 6-(2,4-Difluoro-3-methyl-phenyl)-3-methyl-1-[(1-methylpyrazol-4-yl)methyl]imidazo[4,5-b]pyridin-2-one], the IC50 under setting [1] was 0.15 µM.

On to `COc1ccc(-c2cnc3[nH]c(=O)n(CC4CC4)c3c2)c(OC)c1` [Example 465, 1-(Cyclopropylmethyl)-6-(2,4-dimethoxyphenyl)-3H-imidazo[4,5-b]pyridin-2-one], for which the IC50 under setting [3] stood at 14.4 µM. With `Cc1ccc(C(F)(F)F)cc1-c1cnc2[nH]c(=O)n(CCN3CC(F)C3)c2c1` [Example 185, 1-[2-(3-Fluoroazetidin-1-yl)ethyl]-6-[2-methyl-5-(trifluoromethyl)phenyl]-3H-imidazo[4,5-b]pyridin-2-one], under setting [2], the IC50 turned out to be 2.13 µM.

Take `CCOc1ccc(F)cc1-c1cnc2[nH]c(=O)n(CC3CC3)c2c1` [Example 466, 1-(Cyclopropylmethyl)-6-(2-ethoxy-5-fluoro-phenyl)-3H-imidazo[4,5-b]pyridin-2-one]: under setting [3], the IC50 is 15.8 µM.
